Experimental data: patent publication US20260345623A1, “NOVEL […] HETEROCYCLIC CARBALDEHYDE COMPOUND AND PHARMACEUTICAL COMPOSITION, CONTAINING SAME, FOR IRE1alpha INHIBITION” (HANMI PHARM. CO., LTD., priority 2022, published 2026)
pIC50: −log10 of the molar value.

target: T1, spliced XBP1 mRNA (target of IRE endonuclease) in MCF-7 cancer cells (Homo sapiens, UniProt O75460); assay: Spliced XBP1 mRNA Measurement Test (RT-PCR, tunicamycin-induced ER stress, MCF-7 cells); format: cell-based; details: 1 hour pre-treatment with compound, 2 μg/mL tunicamycin 6 or 24 hours, spliced XBP1 corrected by total XBP1, read-out: XBP1 mRNA (IC50)
T1 construct: tunicamycin ER stress; RT-PCR of spliced XBP1 mRNA (RNase domain activity)
Description: A reverse transcription polymerase chain reaction is a test method in which RNA is extracted from cells, reverse transcriptase is used to make cDNA, and relative mRNA expression level is measured through a polymerase chain reaction.
Briefly, MCF-7 cells were seeded in a 12-well plate and cultured in an incubator including 5% CO2 for one day. On the next day, compounds, which were 10-fold serially diluted from 10,000 nM, were pre-treated for 1 hour, and then, treated with 2 μg/mL tunicamycin for 6 or 24 hours to induce endoplasmic reticulum stress, followed by cell lysis to obtain RNA. RNA was subjected to the procedure of RNeasy Kits (Qiagen, 74106), and 5 μg of RNA sample was dissolved in a sample including reverse transcriptase and dNTP, and reverse transcription reaction was performed with a thermal cycler. The amount of mRNA of each of spliced XBP1 and total XBP1 was measured by a polymerase chain reaction through real time PCR by mixing each cDNA sample with a PCR reaction mixture including a primer pair capable of binding specifically to each target and SYBR green dye. The expression level of spliced XBP1 was corrected by the total expression level of XBP1, and the relative expression levels of spliced XBP1 between samples were compared and analyzed.

T1 sequence (O75460 19-977): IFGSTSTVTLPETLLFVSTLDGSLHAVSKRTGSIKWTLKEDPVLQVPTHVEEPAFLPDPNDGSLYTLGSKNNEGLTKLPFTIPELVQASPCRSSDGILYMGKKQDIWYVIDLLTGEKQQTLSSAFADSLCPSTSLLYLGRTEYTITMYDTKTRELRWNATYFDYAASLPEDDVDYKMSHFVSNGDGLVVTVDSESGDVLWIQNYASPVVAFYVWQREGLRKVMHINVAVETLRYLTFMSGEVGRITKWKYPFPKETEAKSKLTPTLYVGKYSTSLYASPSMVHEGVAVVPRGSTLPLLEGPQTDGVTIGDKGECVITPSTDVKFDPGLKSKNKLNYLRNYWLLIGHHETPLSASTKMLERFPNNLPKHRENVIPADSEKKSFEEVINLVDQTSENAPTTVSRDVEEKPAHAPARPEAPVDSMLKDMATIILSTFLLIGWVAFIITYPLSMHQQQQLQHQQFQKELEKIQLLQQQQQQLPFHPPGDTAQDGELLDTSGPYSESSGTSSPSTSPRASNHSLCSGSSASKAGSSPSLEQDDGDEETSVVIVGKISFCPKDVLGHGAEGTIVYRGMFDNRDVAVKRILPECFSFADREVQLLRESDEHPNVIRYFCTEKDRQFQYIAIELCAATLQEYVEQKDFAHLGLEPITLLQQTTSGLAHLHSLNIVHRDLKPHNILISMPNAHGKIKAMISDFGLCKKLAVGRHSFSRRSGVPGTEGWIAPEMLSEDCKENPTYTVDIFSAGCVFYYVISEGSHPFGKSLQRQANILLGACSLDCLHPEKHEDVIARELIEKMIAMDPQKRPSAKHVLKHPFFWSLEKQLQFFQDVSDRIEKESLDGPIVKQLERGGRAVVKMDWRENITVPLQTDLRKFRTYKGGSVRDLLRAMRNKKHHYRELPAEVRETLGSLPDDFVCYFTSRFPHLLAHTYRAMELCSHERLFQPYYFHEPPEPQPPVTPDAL

SMILES | pIC50
Cc1c(CC(=O)N2CCC(F)(F)C2)c(=O)oc2c(C=O)c(O)c3c(c12)CCCO3 [Example 10, 2-(2-(3,3-difluoropyrrolidin-1-yl)-2-oxoethyl)-6-hydroxy-1-methyl-3-oxo-3,8,9,10-tetrahydropyrano[3,2-f]chromene-5-carbaldehyde] | > 7.00
CCN(CC)C(=O)Cc1c(C)c2c3c(c(O)c(C=O)c2oc1=O)OCC3 [Example 9, N,N-diethyl-2-(5-formyl-4-hydroxy-9-methyl-7-oxo-1,7-dihydro-2H-furo[3,2-f]chromen-8-yl)acetamide] | > 7.00
COC1CCN(C(=O)Cc2c(C)c3c4c(c(O)c(C=O)c3oc2=O)OCCC4)C1 (stereo not shown) [Example 14, 6-hydroxy-2-(2-(3-methoxypyrrolidin-1-yl)-2-oxoethyl)-1-methyl-3-oxo-3,8,9,10-tetrahydropyrano[3,2-f]chromene-5-carbaldehyde] | 6.70 to 7.00
Cc1c(CC(=O)N2CCOCC2)c(=O)oc2c(C=O)c(O)c3c(c12)CCO3 [Example 1, 4-hydroxy-9-methyl-8-(2-morpholino-2-oxoethyl)-7-oxo-1,7-dihydro-2H-furo[3,2-f]chromene-5-carbaldehyde] | > 7.00
Cc1c(CC(=O)N2CCC(C)(C)C2)c(=O)oc2c(C=O)c(O)c3c(c12)CCCO3 [Example 12, 2-(2-(3,3-dimethylpyrrolidin-1-yl)-2-oxoethyl)-6-hydroxy-1-methyl-3-oxo-3,8,9,10-tetrahydropyrano[3,2-f]chromene-5-carbaldehyde] | 6.70 to 7.00
Cc1c(CC(=O)N2CCOCC2)c(=O)oc2c(C=O)c(O)c3c(c12)OCO3 [Example 2, 4-hydroxy-9-methyl-8-(2-morpholino-2-oxoethyl)-7-oxo-7H-[1,3]dioxolo[4,5-f]chromene-5-carbaldehyde] | 6.70 to 7.00
Cc1c(CC(=O)N2CCCC2)c(=O)oc2c(C=O)c(O)c3c(c12)CCCO3 [Example 5, 6-hydroxy-1-methyl-3-oxo-2-(2-oxo-2-(pyrrolidin-1-yl)ethyl)-3,8,9,10-tetrahydropyrano[3,2-f]chromene-5-carbaldehyde] | > 7.00
Cc1c(CC(=O)N2CCC(C)CC2)c(=O)oc2c(C=O)c(O)c3c(c12)CCCO3 [Example 4, 6-hydroxy-1-methyl-2-(2-(4-methylpiperidin-1-yl)-2-oxoethyl)-3-oxo-3,8,9,10-tetrahydropyrano[3,2-f]chromene-5-carbaldehyde] | < 6.70
Cc1c(CC(=O)N2CCC2)c(=O)oc2c(C=O)c(O)c3c(c12)CCCO3 [Example 13, 2-(2-(azetidin-1-yl)-2-oxoethyl)-6-hydroxy-1-methyl-3-oxo-3,8,9,10-tetrahydropyrano[3,2-f]chromene-5-carbaldehyde] | 6.70 to 7.00
CCNC(=O)Cc1c(C)c2c3c(c(O)c(C=O)c2oc1=O)OCC3 [Example 8, N-ethyl-2-(5-formyl-4-hydroxy-9-methyl-7-oxo-1,7-dihydro-2H-furo[3,2-f]chromen-8-yl)acetamide] | > 7.00
Cc1c(CC(=O)N2CCOCC2)c(=O)oc2c(C=O)c(O)c3c(c12)CCCO3 [Example 3, 6-hydroxy-1-methyl-2-(2-morpholino-2-oxoethyl)-3-oxo-3,8,9,10-tetrahydropyrano[3,2-f]chromene-5-carbaldehyde] | > 7.00
Cc1c(CC(=O)N2CCC(C)C2)c(=O)oc2c(C=O)c(O)c3c(c12)CCCO3 (stereo not shown) [Example 11, 6-hydroxy-1-methyl-2-(2-(3-methylpyrrolidin-1-yl)-2-oxoethyl)-3-oxo-3,8,9,10-tetrahydropyrano[3,2-f]chromene-5-carbaldehyde] | > 7.00

Now from value to molecule:

pIC50 | SMILES
< 6.70 | Cc1c(CC(=O)N2CCNCC2)c(=O)oc2c(C=O)c(O)c3c(c12)CCCO3 [Example 31, 6-hydroxy-1-methyl-3-oxo-2-(2-oxo-2-(piperazin-1-yl)ethyl)-3,8,9,10-tetrahydropyrano[3,2-f]chromene-5-carbaldehyde]
> 7.00 | CCN(CC)C(=O)Cc1c(C)c2c3c(c(O)c(C=O)c2oc1=O)OCCC3 [Example 25, N,N-diethyl-2-(5-formyl-6-hydroxy-1-methyl-3-oxo-3,8,9,10-tetrahydropyrano[3,2-f]chromen-2-yl)acetamide]
> 7.00 | Cc1c(CC(=O)N2CC3CC2CO3)c(=O)oc2c(C=O)c(O)c3c(c12)CCCO3 (stereo not shown) [Example 27, 2-(2-(2-oxa-5-azabicyclo[2.2.1]heptan-5-yl)-2-oxoethyl)-6-hydroxy-1-methyl-3-oxo-3,8,9,10-tetrahydropyrano[3,2-f]chromene-5-carbaldehyde]
6.70 to 7.00 | Cc1c(CC(=O)N2CC(F)C2)c(=O)oc2c(C=O)c(O)c3c(c12)CCCO3 [Example 19, 2-(2-(3-fluoroazetidin-1-yl)-2-oxoethyl)-6-hydroxy-1-methyl-3-oxo-3,8,9,10-tetrahydropyrano[3,2-f]chromene-5-carbaldehyde]
< 6.70 | Cc1c(CC(N)=O)c(=O)oc2c(C=O)c(O)c3c(c12)CCCO3 [Example 22, 2-(5-formyl-6-hydroxy-1-methyl-3-oxo-3,8,9,10-tetrahydropyrano[3,2-f]chromen-2-yl)acetamide]
< 6.70 | CC(=O)N1CCN(C(=O)Cc2c(C)c3c4c(c(O)c(C=O)c3oc2=O)OCCC4)CC1 [Example 26, 2-(2-(4-acetylpiperazin-1-yl)-2-oxoethyl)-6-hydroxy-1-methyl-3-oxo-3,8,9,10-tetrahydropyrano[3,2-f]chromene-5-carbaldehyde]
6.70 to 7.00 | CC(C)c1c(CC(=O)N2CCCC2)c(=O)oc2c(C=O)c(O)c3c(c12)CCCO3 [Example 23, 6-hydroxy-1-isopropyl-3-oxo-2-(2-oxo-2-(pyrrolidin-1-yl)ethyl)-3,8,9,10-tetrahydropyrano[3,2-f]chromene-5-carbaldehyde]
> 7.00 | COCCNC(=O)Cc1c(C)c2c3c(c(O)c(C=O)c2oc1=O)OCCC3 [Example 24, 2-(5-formyl-6-hydroxy-1-methyl-3-oxo-3,8,9,10-tetrahydropyrano[3,2-f]chromen-2-yl)-N-(2-methoxyethyl)acetamide]
> 7.00 | CCNC(=O)Cc1c(C)c2c3c(c(O)c(C=O)c2oc1=O)OCCC3 [Example 17, N-ethyl-2-(5-formyl-6-hydroxy-1-methyl-3-oxo-3,8,9,10-tetrahydropyrano[3,2-f]chromen-2-yl)acetamide]
< 6.70 | Cc1c(CC(=O)N2CCC(F)C2)c(=O)oc2c(C=O)c(O)c3c(c12)CCCO3 (stereo not shown) [Example 16, 2-(2-(3-fluoropyrrolidin-1-yl)-2-oxoethyl)-6-hydroxy-1-methyl-3-oxo-3,8,9,10-tetrahydropyrano[3,2-f]chromene-5-carbaldehyde]
6.70 to 7.00 | COC1CN(C(=O)Cc2c(C)c3c4c(c(O)c(C=O)c3oc2=O)OCCC4)C1 [Example 15, 6-hydroxy-2-(2-(3-methoxyazetidin-1-yl)-2-oxoethyl)-1-methyl-3-oxo-3,8,9,10-tetrahydropyrano[3,2-f]chromene-5-carbaldehyde]
> 7.00 | Cc1c(CC(=O)N2CCSC2)c(=O)oc2c(C=O)c(O)c3c(c12)CCCO3 [Example 30, 6-hydroxy-1-methyl-3-oxo-2-(2-oxo-2-(thiazolidin-3-yl)ethyl)-3,8,9,10-tetrahydropyrano[3,2-f]chromene-5-carbaldehyde]
< 6.70 | Cc1c(CC(=O)N2CCCCC2)c(=O)oc2c(C=O)c(O)c3c(c12)CCCO3 [Example 21, 6-hydroxy-1-methyl-3-oxo-2-(2-oxo-2-(piperidin-1-yl)ethyl)-3,8,9,10-tetrahydropyrano[3,2-f]chromene-5-carbaldehyde]
< 6.70 | CCc1c(CC(=O)N2CCCC2)c(=O)oc2c(C=O)c(O)c3c(c12)CCCO3 [Example 18, 1-ethyl-6-hydroxy-3-oxo-2-(2-oxo-2-(pyrrolidin-1-yl)ethyl)-3,8,9,10-tetrahydropyrano[3,2-f]chromene-5-carbaldehyde]
6.70 to 7.00 | Cc1c(CC(=O)N2CCSCC2)c(=O)oc2c(C=O)c(O)c3c(c12)CCCO3 [Example 28, 6-hydroxy-1-methyl-3-oxo-2-(2-oxo-2-thiomorpholinoethyl)-3,8,9,10-tetrahydropyrano[3,2-f]chromene-5-carbaldehyde]
< 6.70 | Cc1c(CC(=O)NCCN2CCOCC2)c(=O)oc2c(C=O)c(O)c3c(c12)CCCO3 [Example 29, 2-(5-formyl-6-hydroxy-1-methyl-3-oxo-3,8,9,10-tetrahydropyrano[3,2-f]chromen-2-yl)-N-(2-morpholinoethyl)acetamide]
6.70 to 7.00 | Cc1c(CC(=O)N2CCC3(CC3)C2)c(=O)oc2c(C=O)c(O)c3c(c12)CCCO3 [Example 20, 6-hydroxy-1-methyl-3-oxo-2-(2-oxo-2-(5-azaspiro[2.4]heptan-5-yl)ethyl)-3,8,9,10-tetrahydropyrano[3,2-f]chromene-5-carbaldehyde]

same assay, conditions: read-out: XBP1 mRNA (IC50), 1 hour pre-treatment with compound, 2 μg/mL tunicamycin 6 or 24 hours, spliced XBP1 corrected by total XBP1

SMILES | pIC50
Cc1c(CC(=O)N2CCN(C)CC2)c(=O)oc2c(C=O)c(O)c3c(c12)CCCO3 [Example 6, 6-hydroxy-1-methyl-2-(2-(4-methylpiperazin-1-yl)-2-oxoethyl)-3-oxo-3,8,9,10-tetrahydropyrano[3,2-f]chromene-5-carbaldehyde] | > 7.00
Cc1c(CC(=O)N2CCN(C(C)C)CC2)c(=O)oc2c(C=O)c(O)c3c(c12)CCCO3 [Example 7, 6-hydroxy-2-(2-(4-isopropylpiperazin-1-yl)-2-oxoethyl)-1-methyl-3-oxo-3,8,9,10-tetrahydropyrano[3,2-f]chromene-5-carbaldehyde] | 6.70 to 7.00
